{"source": "paper PMC6713104", "about": "“New peptide derived antimalaria and antimicrobial agents bearing sulphonamide moiety” (Journal of Enzyme Inhibition and Medicinal Chemistry, 2019)", "key": {"A. niger": {"test_system": "A. niger", "assay": "Antimicrobial MIC, agar cup diffusion", "type": "cell-based", "details": "Aspergillus niger, read-out: MIC (minimum inhibitory concentration)"}, "[1]": {"assay": "Renal or kidney function test", "type": "in vivo", "details": "mice, 10 mg/kg", "excerpt": "(§1) Twenty-four hours before the injecting the compounds, the blood sample of five mice was taken and it was also taken after the last day of treatment, the animals were sacrificed by cervical dislocation and the blood samples were collected by heart puncture. The blood samples for haematological parameters (red blood cell (RBC) count, white blood cell (WBC) count, packed cell volume (PCV), and hemoglobin (HGB)) were collected into EDTA bottles and analyzed using an automated machine (Automated CBC Analyzer: Sysmex KX-21). Kidney function tests carried out with the blood of the rats fed with the sulfonamide derivatives were, creatinine and albunim. The method reported by Kaplan and Tengv[33] was used in the determination of creatinine."}, "[2]": {"test_system": "Plasmodium berghei infection in mice", "assay": "In vivo antimalaria test", "details": "P. berghei infected mice; for inhibition in vivo at 100 mg/kg / inhibition in vivo at 200 mg/kg: Plasmodium berghei, oral", "protocol": "Experimental Design and Treatment of Mice. Methods of Peter et al.[30] and Kalra et al.[31] for antiplasmodial assay against Plasmodium berghei infection in mice with some modifications were employed. About eighty infected mice were randomly divided into five groups, each having […] mice. The inoculum was prepared from a donor mouse with rising parasitemia of 60.42%. After 7 days of infection, animals begin to receive treatment (100 and 200 mg/kg b wt.) of the synthesized compounds (7a–7n) for 12 days with constant check of the percentage of parasitemia after a 4-day interval. Artemisinin (100 and 200 mg/kg body weight.) was given to the other mice in group three as positive control, group four was not treated and group five was not infected. All the compounds and the drugs were given orally by using a standard intragastric tube. For all parasitemia determination, blood samples were collected from tail snip of each mouse and thin smears prepared and stained with 10% Giemsa solution. The uniform fields of each stained slide (for each mouse) were examined under microscope with an oil immersion objective of 100X magnification power and average percent of parasitemia was determined.\nTo determine the in vivo activity, the compounds were tested against P. berghei NK(65 Strain) infection mice., the animals were obtained from Nigeria institute for Trypanosoma and onchocercarioses Research (NTIR) Vom, Plateau State Nigeria. The permission and approval for the use of animals in this experiment were granted by the Animal Ethics Committee, Federal College of Vetrenary Medical Laboratory, Vom, Plateau State. Method of Peter et al.[30], for antiplasmodial assay against P. berghei in mice with some modification were employed. Artemisimin was used as treated control of the experiments. The percentage inhibition of parasite multiplication was calculated comparing the treated group with untreated group by means of the following formula[39] [(A − B)/A] × 100; where A = parasitaemia in the untreated group and B = parasitemia in the test group. […] Most of the compounds were active against P. berghei after 7 days post-infection by reducing the parasiteamia by at least 40% when in a dose of 100 mg/kg (Table 5). The inhibition of parasitaemia increased on 12th day post infection for almost all the compounds. […] However in consideration of the compounds ability to inhibit parasitaemia to the control drug. […] These compounds should be considered for further studies because of its promising activities."}, "Haematological analysis": {"assay": "Haematological analysis", "type": "in vivo, mice", "excerpt": "Twenty-four hours before the injecting the compounds, the blood sample of five mice was taken and it was also taken after the last day of treatment, the animals were sacrificed by cervical dislocation and the blood samples were collected by heart puncture. The blood samples for haematological parameters (red blood cell (RBC) count, white blood cell (WBC) count, packed cell volume (PCV), and hemoglobin (HGB)) were collected into EDTA bottles and analyzed using an automated machine (Automated CBC Analyzer: Sysmex KX-21).\nThe blood samples for haematological parameters (red blood cell (RBC) count, white blood cell (WBC) count, packed cell volume (PCV), and haemoglobin (HGB)) were collected into EDTA bottles and analyzed using an automated machine (Automated CBC Analyzer: Sysmex KX-21) (Table 8). From the analysis, even though there is a decrease in the value of RBC, PCV and HB, it is observed that there is no significant changes in the parameters that were analyzed for the control and the test compounds."}, "Liver function tests": {"assay": "Liver function tests", "type": "in vivo", "set-up": "Glucose: unit not given here", "details": "mice, 10 mg/kg", "excerpt": "as §1, with “KX-21). The liver” for “KX-21). Kidney”, “derivatives were aspartate aminotransperase (AST), alanine transaminase (ALT)” for “derivatives were, creatinine”, “and alkaline phosphatase (ALP). Standard laboratory procedure according to Reitman” for “and albunim. The method reported by Kaplan”, “and Franke[32]” for “and Tengv[33]”, “used for” for “used in”, “of parameters.” for “of creatinine.”"}, "B. subtilis": {"test_system": "B. subtilis", "assay": "Antimicrobial MIC, agar cup diffusion", "type": "cell-based", "details": "for MIC: Bacillus subtilis, B. subtilis, read-out: MIC (minimum inhibitory concentration)"}, "K. pneumoniae": {"test_system": "K. pneumoniae", "assay": "Antimicrobial MIC, agar cup diffusion", "type": "cell-based", "details": "Klebsiella pneumoniae, read-out: MIC (minimum inhibitory concentration)"}, "E. coli": {"test_system": "E. coli", "assay": "Antimicrobial MIC, agar cup diffusion", "type": "cell-based", "details": "Escherichia coli, read-out: MIC (minimum inhibitory concentration)"}, "P. falciparum strain W2": {"test_system": "P. falciparum strain W2", "assay": "In vitro antimalarial assay", "type": "cell-based", "details": "for MIC: Plasmodium falciparum, W2, P. falciparum"}, "S. typhi": {"test_system": "S. typhi", "assay": "Antimicrobial MIC, agar cup diffusion", "type": "cell-based", "details": "Salmonella enterica, read-out: MIC (minimum inhibitory concentration)"}, "C. albicans": {"test_system": "C. albicans", "assay": "Antimicrobial MIC, agar cup diffusion", "type": "cell-based", "details": "Candida albicans, read-out: MIC (minimum inhibitory concentration)"}, "[3]": {"details": "168 h, read-out: % inhibition 7 days post-treatment (100 mg/kg), day 7"}, "[4]": {"details": "168 h, read-out: % inhibition 7 days post-treatment (200 mg/kg), day 7"}, "[5]": {"details": "288 h, read-out: % inhibition 12 days post-treatment (100 mg/kg), day 12"}, "[6]": {"details": "288 h, read-out: % inhibition 12 days post-treatment (200 mg/kg), day 12"}, "[7]": {"details": "48 h, >99% of parasites inhibited from developing to schizonts"}}, "note": "Where two headings read alike, the source gives them in different places.", "data": [{"smiles": "Cc1ccc(S(=O)(=O)NC(C)C(=O)NCC(=O)Nc2cccc(Cl)c2)cc1", "note": "(centres unmarked) [Compound 7h, N-(2-((3-chlorophenyl)amino)-2-oxoethyl)-2–(4-methylphenylsulfonamido)propanamide]", "values": [{"measurement": "MIC", "setting": "A. niger", "value": 31.6, "unit": "µg/mL"}, {"measurement": "melting point", "value": "120 to 122", "unit": "°C"}, {"measurement": "Albumin", "setting": "[1]; After", "value": 3.9, "unit": "g/dL"}, {"measurement": "Creatinine", "setting": "[1]; After", "value": 0.3, "unit": "mg/dL"}, {"measurement": "Albumin", "setting": "[1]; Before", "value": 3.9, "unit": "g/dL"}, {"measurement": "Creatinine", "setting": "[1]; Before", "value": 0.3, "unit": "mg/dL"}, {"measurement": "ability to inhibit parasitaemia compared to the control drug", "setting": "[2]; in words", "value": "almost the same or better activity compared to the artemisinin"}, {"measurement": "inhibition in vivo at 100 mg/kg", "setting": "[2]; [3]", "value": 61.4, "unit": "%"}, {"measurement": "inhibition in vivo at 200 mg/kg", "setting": "[2]; [4]", "value": 49.9, "unit": "%"}, {"measurement": "inhibition in vivo at 100 mg/kg", "setting": "[2]; [5]", "value": 57.8, "unit": "%"}, {"measurement": "inhibition in vivo at 200 mg/kg", "setting": "[2]; [6]", "value": 55.2, "unit": "%"}, {"measurement": "HB", "setting": "Haematological analysis; After treatment", "value": 10.0, "unit": "g/dL"}, {"measurement": "PCV", "setting": "Haematological analysis; After treatment", "value": 34, "unit": "%"}, {"measurement": "RBC", "setting": "Haematological analysis; After treatment", "value": "5.9 × 10^6 mm^3"}, {"measurement": "WBC", "setting": "Haematological analysis; After treatment", "value": "9.3 × 10^3 mm^3"}, {"measurement": "HB", "setting": "Haematological analysis; Before treatment", "value": 13.4, "unit": "g/dL"}, {"measurement": "PCV", "setting": "Haematological analysis; Before treatment", "value": 39, "unit": "%"}, {"measurement": "RBC", "setting": "Haematological analysis; Before treatment", "value": "7.3 × 10^6 mm^3"}, {"measurement": "WBC", "setting": "Haematological analysis; Before treatment", "value": "9.4 × 10^3 mm^3"}, {"measurement": "ALT", "setting": "Liver function tests; After", "value": 24.5, "unit": "µ/L"}, {"measurement": "AST", "setting": "Liver function tests; After", "value": 69.5, "unit": "µ/L"}, {"measurement": "Bilirubin", "setting": "Liver function tests; After", "value": 0.3, "unit": "mg/dL"}, {"measurement": "Glucose", "setting": "Liver function tests; After", "value": 5.5}, {"measurement": "T.P.", "setting": "Liver function tests; After", "value": 5.5, "unit": "g/dL"}, {"measurement": "ALT", "setting": "Liver function tests; Before", "value": 25.4, "unit": "µ/L"}, {"measurement": "AST", "setting": "Liver function tests; Before", "value": 65.0, "unit": "µ/L"}, {"measurement": "Bilirubin", "setting": "Liver function tests; Before", "value": 0.4, "unit": "mg/dL"}, {"measurement": "Glucose", "setting": "Liver function tests; Before", "value": 5.9}, {"measurement": "T.P.", "setting": "Liver function tests; Before", "value": 6.0, "unit": "g/dL"}, {"measurement": "MIC", "setting": "B. subtilis", "value": 214, "unit": "µg/mL"}, {"measurement": "MIC", "setting": "K. pneumoniae", "value": 5250, "unit": "µg/mL"}, {"measurement": "MIC", "setting": "E. coli", "value": 239, "unit": "µg/mL"}, {"measurement": "MIC", "setting": "P. falciparum strain W2", "value": 50, "unit": "µM"}, {"measurement": "MIC", "setting": "P. falciparum strain W2; [7]", "value": 0.03, "unit": "µM"}, {"measurement": "in vitro antimalarial activity relative to other compounds and standard drugs", "setting": "P. falciparum strain W2; in words", "value": "best activity"}, {"measurement": "MIC", "setting": "S. typhi", "value": 1290, "unit": "µg/mL"}, {"measurement": "MIC", "setting": "C. albicans", "value": 34, "unit": "µg/mL"}]}, {"smiles": "CC(NS(=O)(=O)c1ccccc1)C(=O)NCC(=O)Nc1ccc(Cl)cc1", "note": "(centres unmarked) [Compound 7b]", "values": [{"measurement": "MIC", "setting": "A. niger", "value": 100, "unit": "µg/mL"}, {"measurement": "melting point", "value": "140 to 142", "unit": "°C"}, {"measurement": "inhibition in vivo at 100 mg/kg", "setting": "[2]; [3]", "value": 51.3, "unit": "%"}, {"measurement": "inhibition in vivo at 200 mg/kg", "setting": "[2]; [4]", "value": 57.6, "unit": "%"}, {"measurement": "inhibition in vivo at 100 mg/kg", "setting": "[2]; [5]", "value": 55.2, "unit": "%"}, {"measurement": "inhibition in vivo at 200 mg/kg", "setting": "[2]; [6]", "value": 53.4, "unit": "%"}, {"measurement": "MIC", "setting": "B. subtilis", "value": 129, "unit": "µg/mL"}, {"measurement": "activity against Bacillus compared with ciprofloxacin", "setting": "B. subtilis; in words", "value": "greater activity against Bacillus than ciprofloxacin"}, {"measurement": "MIC", "setting": "K. pneumoniae", "value": 1690, "unit": "µg/mL"}, {"measurement": "MIC", "setting": "E. coli", "value": 467, "unit": "µg/mL"}, {"measurement": "MIC", "setting": "P. falciparum strain W2; [7]", "value": 0.87, "unit": "µM"}, {"measurement": "MIC", "setting": "S. typhi", "value": 602, "unit": "µg/mL"}, {"measurement": "MIC", "setting": "C. albicans", "value": 135, "unit": "µg/mL"}]}]}
